Several values for one entry are separate records, joined by “and”; a condition that tells them apart may be missing. Identical values can stand only once.
Conditions: Liquid, Ebulliometric method (Recirculating still)

CC(C)O [propan-2-ol]
Conditions	vapor or sublimation pressure
317.07 K	17.46 kPa
317.65 K	17.98 kPa
318.1 K	18.39 kPa
318.73 K	19.01 kPa
319.19 K	19.48 kPa
319.72 K	20.03 kPa
320.19 K	20.52 kPa
320.65 K	21 kPa
321.11 K	21.49 kPa
321.58 K	22.03 kPa
322.07 K	22.55 kPa
322.47 K	23.03 kPa
322.91 K	23.52 kPa
323.32 K	24.02 kPa
323.71 K	24.51 kPa
324.13 K	25.03 kPa
324.49 K	25.48 kPa
324.94 K	26.04 kPa
325.3 K	26.52 kPa
325.72 K	27.08 kPa
326.18 K	27.69 kPa
326.53 K	28.19 kPa
326.99 K	28.83 kPa
327.46 K	29.45 kPa
327.86 K	30.08 kPa
328.47 K	30.96 kPa
329.06 K	31.86 kPa
329.64 K	32.76 kPa
330.26 K	33.77 kPa
330.73 K	34.52 kPa
331.32 K	35.48 kPa
331.83 K	36.37 kPa
332.44 K	37.45 kPa
332.99 K	38.41 kPa
333.5 K	39.33 kPa
334.1 K	40.41 kPa
334.6 K	41.44 kPa
335.12 K	42.44 kPa
335.64 K	43.46 kPa
336.11 K	44.38 kPa
336.55 K	45.32 kPa
337.07 K	46.34 kPa
337.5 K	47.28 kPa
337.98 K	48.35 kPa
338.45 K	49.34 kPa
338.86 K	50.25 kPa
339.3 K	51.26 kPa
339.72 K	52.33 kPa
340.04 K	53.01 kPa
340.43 K	53.94 kPa
340.89 K	55.03 kPa
341.25 K	55.92 kPa
341.69 K	56.96 kPa
342.09 K	58.05 kPa
342.48 K	59.04 kPa
342.82 K	59.93 kPa
343.2 K	60.91 kPa
343.59 K	61.94 kPa
343.96 K	62.98 kPa
344.32 K	63.92 kPa
344.68 K	64.96 kPa
345.05 K	65.97 kPa
345.35 K	66.84 kPa
345.75 K	68.03 kPa
346.13 K	69.14 kPa
346.46 K	70.12 kPa
347.11 K	72.04 kPa
347.79 K	74.18 kPa
348.37 K	75.96 kPa
348.95 K	77.81 kPa
349.61 K	79.96 kPa
350.08 K	81.58 kPa
350.75 K	83.94 kPa
351.21 K	85.47 kPa
351.69 K	87.17 kPa
352.09 K	88.63 kPa
352.54 K	90.24 kPa
353.16 K	92.57 kPa
353.66 K	94.46 kPa
354.2 K	96.49 kPa
354.59 K	98.05 kPa
355.09 K	100 kPa and 100.03 kPa
355.38 K	101.28 kPa
355.93 K	103.44 kPa
356.4 K	105.38 kPa
356.76 K	106.91 kPa
357.16 K	108.63 kPa
357.52 K	110.13 kPa
357.93 K	111.88 kPa
358.35 K	113.79 kPa
358.65 K	115.1 kPa
358.98 K	116.64 kPa
359.43 K	118.64 kPa
359.77 K	120.24 kPa
360.16 K	122.11 kPa
360.57 K	124.03 kPa
360.9 K	125.62 kPa
361.26 K	127.36 kPa
361.62 K	129.08 kPa
361.98 K	130.93 kPa
362.26 K	132.35 kPa
362.52 K	133.65 kPa

O [water]
Conditions	vapor or sublimation pressure [kPa]
372.81 K	100
372.84 K	100

Source: the NIST ThermoML archive (doi:10.1016/j.jct.2017.02.005)
